Laboratory results taken from patent US20090155318A1, “PROCESS TO FORM NANO-SIZED MATERIALS, THE COMPOSITIONS AND USES THEREOF” (priority 2006, published 2009).

Experiment: solubility (saturation concentration) of the salts in water versus temperature, FIG. 2
Type: physicochemical
Conditions: at 0° C., aqueous, read from FIG. 2

Compound: [Cl-].[K+] [KCl]
- saturation concentration in water: about 0.41 moles/100 g H2O
